# What was measured:
# [1] = system: wounds following necrosis and sloughing of spontaneous tumours; test: Resolution of wounds after sloughing of spontaneous tumours treated by intratumoural injection, feline; format: in vivo
# Protocol: (§1) Veterinary clinical data on speed of resolution of wounds that formed following necrosis and sloughing of spontaneous tumours that had been treated by intratumoural injection of Compound 1 (30% 1,2 propanediol formulation at either 0.5 or 1.0 mg/mL concentration) in twenty-four companion animals are summarised in Table 17.
# (§2) Note that all wounds were managed as open wounds and no bandaging, dressings, lotions or concomitant medications were used in any of these cases.
# [2] = system: infected bone wound; infectious vasculitis in the ear; test: Veterinary case studies 8 and 9, tree kangaroo wounds; format: in vivo, Dendrolagus lumholtzi
# Protocol: (§3) Seven dogs (Canis lupus familiaris) and one tree kangaroo (Dendrolagus humholzii) with chronic, non-healing wounds that were unresponsive to current veterinary standards-of-care for these indications were treated with Compound 1 by independent veterinarians. A second tree kangaroo and a spectacled flying fox (Pteropus conspicillatus) with wounds unsuited for initial treatment with current standards-of-care were also treated with Compound 1. All cases were managed as open wounds without the use of dressings or other bandaging during the course of treatment with Compound 1 and the subsequent period of wound resolution. Unless stated in individual case studies, no concomitant medications were used over the course of treatments with Compound 1.
# The patient was treated for 1 month with injectable antibiotics ceftazidime (Fortum) and trimethoprim sulphamethoxazole (TMS). […] Within 10 minutes of the application of Compound 1 gel there was a purulent discharge from the treated area. • On presentation 8 days after the first treatment a purulent discharge was oozing from 2 of the 3 wounds on the leg. The other wound (smallest lesion on the heal) had contracted and commenced healing. A further treatment of 0.15 mL of 5 mg/mL gel formulation of Compound 1 was used to treat each of the two open wounds (one over the ankle joint, the other on the base of the foot pad). A slow IV. infusion of sodium iodide was also given. • A further 15 days later (23 days after initial treatment) several mLs of thick purulent pus was squeezed from the wound on the pad of the foot before forcing 0.15 mL of 5 mg/mL gel formulation of Compound 1 into the drained wound sinus. • One week later there was significant improvement. in the infection. A small piece of bone was removed from the hole in the foot pad. There was no pus evident but there was a serous discharge. A further 0.2 mL. of the Compound 1 gel was applied to each of lesions, one over the ankle, the other underneath the foot. A slow IV infusion of sodium iodide was also delivered. Limb is now weight bearing. but the heal and foot pad is still very firm with inflammation and the animal's gait is very uneven and strongly favouring the undamaged hind leg. • A further 15 days later the wound over the ankle joint had fully closed and hair was growing back. The wound on the heal of the foot pad had contracted to less than 50% of its size at the previous visit and the surrounding skin and tissue is soft, pliable and normal.
# Case notes: • The patient presented as a young injured animal found in the wild. • Patient was very weak, dehydrated and anaemic. […] Patient was placed on fluid therapy and medicated with anti-nausea drug maropitant citrate (cerenia) and two injectable antibiotic formulations Tribacteral (trimethoprim, sulfadiazine) and ceftazidime (fortum). • After 9 days on a fluid drip the patient's condition had improved but there was trauma to the right ear and likely infectious vasculitis and gangrene. Surgery was not possible because of significant anaesthetic risk due to the patient's highly compromised condition. Instead, treatment with a gel formulation of Compound 1 was initiated. • Three treatments of 0.1 mL of 5 mg/mL strength Compound 1 gel were applied to the affected area at 7 day intervals. The only concurrent medication during this time was the cephalosporin antibiotics deftazidime (fortum). • At 7 days after the first treatment of Compound 1 gel, a tightly adhering eschar covered the wound surface.
# [3] = system: severe lacerated wound on the head; test: Veterinary case study 10, lacerated head wound of a spectacled flying fox; format: in vivo, Pteropus conspicillatus
# Protocol: as §3
# Case notes: • The patient presented as a 4 month old flying fox with a deep penetrating wound on the head […] caused by entanglement in barbed wire. • In the opinion of the treating veterinarian who had extensive experience in wildlife injuries (including flying foxes) normal standard of care treatments were likely to be highly problematic in causing the right eye to lose shape and not be able to close, either due to excessive scar tissue formation associated with surgery or the extent of granulation required if wound healing dressings were applied. • Compound 1 was applied to the wound in 3 applications of 0.1 mL of 5 mg/mL gel formulation over a 28 day period (Days 1, 10 and 28). […] A very healthy granulation bed was present.
# [4] = system: wounds following necrosis and sloughing of spontaneous tumours; test: Resolution of wounds after sloughing of spontaneous tumours treated by intratumoural injection, equine; format: in vivo; conditions: for Average days from tumour slough to wound closure: Equine
# Protocol: as §1, §2
# [5] = system: immortalised human keratinocyte cells (HaCaT); test: Scratch repopulation and closure with HaCaT; format: cell-based; conditions: 48 hrs; 0.001, 0.01 and 0.1 μg/ml; p<0.01
# [6] = 5 to 10% tissue deficit across the original wound area
# [7] = <5% tissue deficit across the original wound area
# [8] = >10% tissue deficit across the original wound area
# [9] = Hair covers <50% of original wound area
# [10] = Hair covers >50% of original wound area
# [11] = Hair covers >95% of original wound area
# [12] = Localised scar covering <10% of original wound area
# [13] = Scarring covering >10% of original wound area
# [14] = Scarring not obvious visually or by touch
# [15] = Case 8, 15 days after the fourth application
smiles,measurement,setting,value
"CC=C(C)C(=O)OC1C(C)C2(O)C(C3OC3(CO)C(O)C3(O)C(=O)C(C)=CC32)C2C(C)(C)C12OC(=O)C(C)CC (centres unmarked) [Compound 1, 12-tigloyl-13-(2-methylbutanoyl)-6,7-epoxy-4,5,9,12,13,20-hexahydroxy-1-tigliaen-3-one]","No. of cats: Tissue deficit at wound site, Minor",[1]; [6],0
same,"No. of cats: Tissue deficit at wound site, Nil or minimal",[1]; [7],3
same,"No. of cats: Tissue deficit at wound site, Substantial",[1]; [8],0
same,Average days from tumour slough to wound closure,"[1]; Feline, wound size class 0.25 to 12 cm^2, 3 cases",17 ± 10 days
same,"No. of cats: Hair regrowth on wound area, Sparse",[1]; [9],0
same,"No. of cats: Hair regrowth on wound area, Partial",[1]; [10],1
same,"No. of cats: Hair regrowth on wound area, Full",[1]; [11],2
same,"No. of cats: Scarring & skin thickening, Minor",[1]; [12],0
same,"No. of cats: Scarring & skin thickening, Substantial",[1]; [13],0
same,"No. of cats: Scarring & skin thickening, Nil or minimal",[1]; [14],3
same,"No. of cats: Change in hair colour, No",[1]; healed wound site,2
same,"No. of cats: Change in hair colour, Yes",[1]; healed wound site,1
same,"No. of cats: Skin pigmentation, Hyperpigmentation",[1]; healed wound site,0
same,"No. of cats: Skin pigmentation, Hypopigmentation",[1]; healed wound site,0
same,"No. of cats: Skin pigmentation, Normal",[1]; healed wound site,3
same,"No. of cats: Skin pigmentation, Patchy",[1]; healed wound site,0
same,time to purulent discharge from the treated area,"[2]; Case 8, tree kangaroo, infected bone wound, first application 0.1 mL gel 5 mg/mL per lesion",≤ 10 min
same,"wound outcome, wound over the ankle joint","[2]; Case 8, 4 applications gel 5 mg/mL, 15 days after the fourth application",fully closed
same,limb function,[2]; [15],fully weight bearing
same,"wound on the heal of the foot pad, % of its size at the previous visit",[2]; [15],less than 50%
same,reduction of wound area,"[2]; Case 9, tree kangaroo, ear, 3 x 0.1 mL gel 5 mg/mL at 7 day intervals, 14 days after initial treatment",approximately 50%
same,wound status,"[2]; Case 9, 25 days",healthy tissue was present over the entire area of the wound
same,wound outcome,"[2]; Case 9, 67 days",totally resolved and there was full hair coverage over the ear
same,wound status,"[3]; Case 10, flying fox, head wound, 3 x 0.1 mL gel 5 mg/mL (Days 1, 10, 28), 14 days after the initial treatment",significant tissue infill and remodeling
same,wound status,"[3]; Case 10, 55 days after the initial treatment",good tissue infill over the entire area of the original wound
same,eye function,"[3]; Case 10, by 28 days",capable of fully closing
same,"No. of horses: Tissue deficit at wound site, Minor",[4]; [6],0
same,"No. of horses: Tissue deficit at wound site, Nil or minimal",[4]; [7],6
same,"No. of horses: Tissue deficit at wound site, Substantial",[4]; [8],0
same,Average days from tumour slough to wound closure,"[4]; wound size class 0.25 to 9 cm^2, 4 cases",20 ± 12 days
same,Average days from tumour slough to wound closure,"[4]; wound size class 9 to 50 cm^2, 2 cases",53 ± 22 days
same,"No. of horses: Hair regrowth on wound area, Sparse",[4]; [9],0
same,"No. of horses: Hair regrowth on wound area, Partial",[4]; [10],1
same,"No. of horses: Hair regrowth on wound area, Full",[4]; [11],5
same,"No. of horses: Scarring & skin thickening, Minor",[4]; [12],1
same,"No. of horses: Scarring & skin thickening, Substantial",[4]; [13],1
same,"No. of horses: Scarring & skin thickening, Nil or minimal",[4]; [14],4
same,"No. of horses: Change in hair colour, No",[4]; healed wound site,3
same,"No. of horses: Change in hair colour, Yes",[4]; healed wound site,3
same,"No. of horses: Skin pigmentation, Hyperpigmentation",[4]; healed wound site,1
same,"No. of horses: Skin pigmentation, Hypopigmentation",[4]; healed wound site,1
same,"No. of horses: Skin pigmentation, Normal",[4]; healed wound site,3
same,"No. of horses: Skin pigmentation, Patchy",[4]; healed wound site,1
same,rate of scratch closure compared to the control treatment,[5],significantly increased

# Source: patent publication US10822317B2, “Methods and compositions for wound healing” (QBiotics Limited, priority 2013, dated 2020)
